SMILES strings stand for the structures. ≈ marks a conversion by molar mass, not a printed value. A value given as a limit tells only on which side of the number the result lay.

The subject of one experiment is Klebsiella pneumoniae. As to the kind of experiment: Antibacterial activity against Klebsiella pneumoniae ATCC BAA-1705 after 24 hrs. It counts as functional. Particulars: ATCC BAA-1705, 24 h.
Experiment [1] deals with Mycolicibacterium fortuitum. Briefly: Antibacterial activity against Mycobacterium fortuitum after 7 days by alamar blue assay. The conditions noted are these: 168 h. It counts as functional.
The test system of experiment [2] is Mycobacterium tuberculosis. Briefly: Antitubercular activity against Mycobacterium tuberculosis H37Rv after 7 days by alamar blue assay. It is filed as functional. The conditions noted are these: 168 h.
Another experiment concerns Staphylococcus aureus. Briefly: Antibacterial activity against Staphylococcus aureus ATCC 29213 after 24 hrs. Particulars: ATCC 29213, 24 h. It counts as functional.
In experiment [3] the test system is Mycobacteroides abscessus. Briefly: Antibacterial activity against Mycobacterium abscessus after 7 days by alamar blue assay. The conditions noted are these: 168 h. It counts as functional.
The test system of another experiment is Escherichia coli. Briefly: Antibacterial activity against Escherichia coli ATCC 25922 after 24 hrs. It is filed as functional. The conditions noted are these: ATCC 25922, 24 h.
Another experiment concerns Acinetobacter baumannii. As to the kind of experiment: Antibacterial activity against Acinetobacter baumannii ATCC BAA-1605 after 24 hrs. The conditions noted are these: ATCC BAA-1605, 24 h. It counts as functional.
A further experiment relates to Mycobacteroides chelonae. As to the kind of experiment: Antibacterial activity against Mycobacterium chelonae after 7 days by alamar blue assay. The conditions noted are these: 168 h. It counts as functional.
In the next experiment the test system is Pseudomonas aeruginosa. As to the kind of experiment: Antibacterial activity against Pseudomonas aeruginosa ATCC 27853 after 24 hrs. It is filed as functional. Particulars: ATCC 27853, 24 h.
Experiment [4] in a line: Cytotoxicity against […] B16 cells after 24 hrs by MTT assay. The conditions noted are these: B16, 24 h. It counts as functional, cell-based.
The subject of the next experiment is DU-145. As to the kind of experiment: Cytotoxicity against human DU145 cells after 24 hrs by MTT assay. It counts as functional, cell-based. The conditions noted are these: DU-145, 24 h.
The nature of experiment [5]: Cytotoxicity against HEK cells after 24 hrs by MTT assay. It is filed as cell-based. The conditions noted are these: Homo sapiens, HEK293, 24 h.
A further experiment has as its system MCF7. Briefly: Cytotoxicity against human MCF7 cells after 24 hrs by MTT assay. Particulars: MCF7, 24 h. It counts as functional, cell-based.
The test system of a further experiment is A549. As to the kind of experiment: Cytotoxicity against human A549 cells after 24 hrs by MTT assay. It counts as functional, cell-based. The conditions noted are these: A549, 24 h.
A further experiment concerns HepG2. Briefly: Cytotoxicity against human HepG2 cells after 24 hrs by MTT assay. Particulars: HepG2, 24 h. It counts as functional, cell-based.
A further experiment concerns HeLa. As to the kind of experiment: Cytotoxicity against human HeLa cells after 24 hrs by MTT assay. It counts as functional, cell-based.

In the case of `Cc1ccc(N(C(=O)c2ccncc2)C(C(=O)NC2CCCCC2)c2cccnc2)cc1` (centres undefined), the MIC is more than 50 µM in the experiment on Klebsiella pneumoniae; more than 50 µM in [1]; 25 µM (≈ 10.7 µg/mL) in [2]; more than 50 µM in the experiment on Staphylococcus aureus; more than 50 µM in experiment [3]; more than 50 µM with Escherichia coli. Also, the MIC in the experiment on Acinetobacter baumannii, in the experiment with Mycobacteroides chelonae and in the experiment on Pseudomonas aeruginosa was more than 50 µM throughout.
`C[C@H]1COc2c(N3CCN(C)CC3)c(F)cc3c(=O)c(C(=O)O)cn1c23` [LEVOFLOXACIN]: the MIC was 64 µM (≈ 23.1 µg/mL) against Klebsiella pneumoniae; less than 0.03 µM in [1]; 0.25 µM (≈ 0.0903 µg/mL) in the experiment on Staphylococcus aureus; 64 µM (≈ 23.1 µg/mL) in experiment [3]; less than 0.03 µM in the experiment on Escherichia coli; 8 µM (≈ 2.89 µg/mL) with Acinetobacter baumannii. In addition, the results for the MIC in the experiment with Mycobacteroides chelonae and in the experiment on Pseudomonas aeruginosa were 0.25 µM (≈ 0.0903 µg/mL) and 1 µM (≈ 0.361 µg/mL), respectively.
`Cc1cccc(C)c1N(C(=O)c1ccc[nH]1)C(C(=O)NC1CCCCC1)c1ccccc1` (centres undefined): the MIC against Klebsiella pneumoniae was more than 50 µM; in experiment [1], more than 50 µM; in experiment [2], 25 µM (≈ 10.7 µg/mL); in the experiment on Staphylococcus aureus, more than 50 µM; in [3] it was more than 50 µM; with Escherichia coli, more than 50 µM. For the same molecule, the MIC in the experiment on Acinetobacter baumannii, in the experiment on Mycobacteroides chelonae and against Pseudomonas aeruginosa was more than 50 µM each time.
For `Cc1ccc(N(C(=O)c2ccc[nH]2)C(C(=O)NC2CCCCC2)c2ccncc2)cc1` (centres undefined), the MIC in the experiment on Klebsiella pneumoniae was more than 50 µM; in [1], more than 50 µM; in [2], 25 µM (≈ 10.4 µg/mL); against Staphylococcus aureus, more than 50 µM; in [3], more than 50 µM; in the experiment with Escherichia coli it was more than 50 µM. The MIC against Acinetobacter baumannii, with Mycobacteroides chelonae and against Pseudomonas aeruginosa was more than 50 µM each time.
Take `COc1cccc2c1C(=O)c1c(O)c3c(c(O)c1C2=O)C[C@@](O)(C(=O)CO)C[C@@H]3O[C@H]1C[C@H](N)[C@H](O)[C@H](C)O1` [DOXORUBICIN]: the half-maximal inhibitory concentration (IC50) in experiment [4] stood at 700 nM; in the experiment with DU-145, 363 nM; in experiment [5] it was 10 nM; in the experiment with MCF7 it was 2000 nM; in the experiment with A549, 550 nM; with HepG2 it was 720 nM. The same molecule returned an IC50 with HeLa of 800 nM.
`Cc1cccc(N(C(=O)c2ccc(Br)o2)C(C(=O)NC2CCCCC2)c2ccccc2)c1C` (centres undefined) showed an MIC in experiment [2] of more than 100 µM.
For the molecule `Cc1ccc(N(C(=O)c2ccc[nH]2)C(C(=O)NC2CCCCC2)c2ccccc2)cc1` (centres undefined), in experiment [2], the lowest concentration to inhibit growth (MIC) was 25 µM (≈ 10.4 µg/mL).
Molecule `Cc1ccc(N(C(=O)c2sc(C)nc2C)C(C(=O)NC2CCCCC2)c2ccccc2Cl)cc1` (centres undefined) displayed an MIC in experiment [2] of more than 100 µM.
The molecule `Cc1ccc(C)c(N(C(=O)c2sc(C)nc2C)C(C(=O)NC2CCCCC2)c2ccccc2)c1` (centres undefined) displayed an MIC in experiment [2] of more than 100 µM.
For `COc1ccc(C(C(=O)NC2CCCCC2)N(C(=O)c2sc(C)nc2C)c2ccc(C)cc2)cc1` (centres undefined), the MIC in experiment [2] is more than 100 µM.
Molecule `Cc1ccc(N(C(=O)c2sc(C)nc2C)C(C(=O)NC(C)(C)C)c2ccccc2)cc1` (centres undefined) showed an MIC in [2] of more than 100 µM.
`Cc1ccc(N(C(=O)c2sc(C)nc2C)C(C(=O)Nc2cccc3ccccc23)c2ccccc2)cc1` (centres undefined) showed an MIC in experiment [2] of more than 100 µM.
In turn, `Cc1cc(C)cc(N(C(=O)c2sc(C)nc2C)C(C(=O)NC2CCCCC2)c2ccccc2)c1` (centres undefined) registered an MIC in experiment [2] of more than 100 µM.
As for `Cc1nc(C)c(C(=O)N(c2c(C)cccc2C)C(C(=O)NC2CCCCC2)c2ccccc2)s1` (centres undefined), the MIC was more than 50 µM in the experiment with Klebsiella pneumoniae; more than 50 µM in [1]; 25 µM (≈ 11.9 µg/mL) in experiment [2]; more than 50 µM against Staphylococcus aureus; more than 50 µM in experiment [3]; more than 50 µM against Escherichia coli. For the same molecule, the MIC in the experiment with Acinetobacter baumannii, against Mycobacteroides chelonae and against Pseudomonas aeruginosa was more than 50 µM in each case.
In [2], `Cc1nc(C)c(C(=O)N(c2cnc3ccccc3c2)C(C(=O)NC2CCCCC2)c2ccccc2)s1` (centres undefined) came in with an MIC of more than 100 µM.
Same read-out and setting: the value for `Cc1nc(C)c(C(=O)N(c2cccc(C)c2C)C(C(=O)NC(C)(C)C)c2ccccc2)s1` (centres undefined) was more than 100 µM; that for `Cc1nc(C)c(C(=O)N(c2ccccc2)C(C(=O)NC2CCCCC2)c2cccc(Cl)c2)s1` (centres undefined) was more than 100 µM; that for `Cc1nc(C)c(C(=O)N(c2ccc(C)c(C)c2)C(C(=O)NC2CCCCC2)c2ccccc2)s1` (centres undefined) was more than 100 µM.
The molecule `Cc1nc(C)c(C(=O)N(c2ccccc2)C(C(=O)NC2CCCCC2)c2ccc(C(F)(F)F)cc2)s1` (centres undefined) returned an MIC in experiment [2] of more than 100 µM.
Consider `Cc1nc(C)c(C(=O)N(c2ccccc2)C(C(=O)NC2CCCCC2)c2ccccc2)s1` (centres undefined), for which the MIC in experiment [2] is more than 100 µM.
On the same count and under the same terms, the value for `Cc1ccc(N(C(=O)c2sc(C)nc2C)C(C(=O)NC2CCCCC2)c2ccc(C(F)(F)F)cc2)cc1` (centres undefined) was more than 100 µM.
Regarding `Cc1cccc(N(C(=O)c2ccnc(Cl)c2)C(C(=O)NC2CCCCC2)c2ccccc2)c1C` (centres undefined), the MIC in experiment [2] was more than 100 µM.
In the case of `Cc1cccc(N(C(=O)c2cnc3ccccc3c2)C(C(=O)NC2CCCCC2)c2ccccc2)c1C` (centres undefined), in experiment [2], the MIC was more than 100 µM.
For the molecule `Cc1nc(C)c(C(=O)N(c2ccccc2O)C(C(=O)NC2CCCCC2)c2ccccc2)s1` (centres undefined), the MIC against Klebsiella pneumoniae was more than 50 µM; in [1], more than 50 µM; in experiment [2], 25 µM (≈ 11.6 µg/mL); against Staphylococcus aureus, more than 50 µM; in experiment [3] it was more than 50 µM; in the experiment with Escherichia coli it was more than 50 µM. For the same molecule, the MIC with Acinetobacter baumannii, with Mycobacteroides chelonae and against Pseudomonas aeruginosa was more than 50 µM in each case.
Take `CCc1ccccc1N(C(=O)c1sc(C)nc1C)C(C(=O)NC1CCCCC1)c1ccccc1` (centres undefined): the MIC in the experiment on Klebsiella pneumoniae was more than 50 µM; in [1] it was more than 50 µM; in experiment [2] it was 25 µM (≈ 11.9 µg/mL); with Staphylococcus aureus it was more than 50 µM; in [3], more than 50 µM; against Escherichia coli, more than 50 µM. Besides, the MIC in the experiment with Acinetobacter baumannii, in the experiment on Mycobacteroides chelonae and in the experiment on Pseudomonas aeruginosa was more than 50 µM in each case.
In experiment [2], `Cc1ccc(N(C(=O)c2ccncc2)C(C(=O)NC2CCCCC2)c2ccncc2)cc1` (centres undefined) showed an MIC of 25 µM (≈ 10.7 µg/mL). That is a double-digit micromolar value.
For `Cc1cccc(N(C(=O)c2ccncc2)C(C(=O)NC2CCCCC2)c2ccncc2)c1C` (centres undefined), the MIC is more than 50 µM with Klebsiella pneumoniae; more than 50 µM in experiment [1]; 25 µM (≈ 11.1 µg/mL) in experiment [2]; more than 50 µM against Staphylococcus aureus; more than 50 µM in experiment [3]; more than 50 µM against Escherichia coli. In addition, the MIC with Acinetobacter baumannii, with Mycobacteroides chelonae and against Pseudomonas aeruginosa was more than 50 µM each time.
As to `Cc1cccc(N(C(=O)c2c(C)noc2C)C(C(=O)NC2CCCCC2)c2ccncc2)c1C` (centres undefined), the MIC against Klebsiella pneumoniae is more than 50 µM; in experiment [1], more than 50 µM; in experiment [2], 25 µM (≈ 11.5 µg/mL); against Staphylococcus aureus it was more than 50 µM; in [3], more than 50 µM; against Escherichia coli, more than 50 µM. In addition, the MIC in the experiment with Acinetobacter baumannii, in the experiment on Mycobacteroides chelonae and with Pseudomonas aeruginosa was more than 50 µM in each case.
In experiment [2], `Cc1nc(C)c(C(=O)N(c2ccccc2)C(C(=O)NC2CCCCC2)c2cccc(C(F)(F)F)c2)s1` (centres undefined) returned an MIC of more than 100 µM.
On the same count and under the same terms, the value for `Cc1ccc(N(C(=O)c2sc(C)nc2C)C(C(=O)NC(C)(C)C)c2ccccc2)c(C)c1` (centres undefined) was more than 100 µM.
In experiment [2], `COc1ccc(C(C(=O)NC2CCCCC2)N(C(=O)c2sc(C)nc2C)c2ccccc2)cc1` (centres undefined) had an MIC of more than 100 µM.
For the molecule `Cc1cccc(N(C(=O)c2ccco2)C(C(=O)NC2CCCCC2)c2ccccc2)c1C` (centres undefined), the minimal inhibitory concentration (MIC) in [2] is more than 100 µM.
